Data published in paper PMC7531004, “Discovery of gramicidin A analogues with altered activities by multidimensional screening of a one-bead-one-compound library” (Nature Communications, 2020).
Where a SMILES comes first, the peptide text is derived from it. [ ]: non-standard residue; d: D form. The star is where a group is joined. NHCH2CH2OH = OCCN*; For = O=C*

Key:
[1] = H+/Na+ transport assay of bead-derived peptides (one-point); assay type: biochemical; set-up: key: relative activity; mean of two control wells = 1.00; conditions: bead-derived peptide solution, EYPC/EYPG LUVs;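 also: relative to parent gramicidin A activity set to 1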
Outline: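 Values are normalized fluorescence, with Triton X-100 defining 100% and untreated LUVs 0%, and the two control wells averaging 1.00. Vesicles carried 1.0 mM pyranine and included egg yolk phosphatidylglycerol. Peptides were incubated with them 30 min at room temperature.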

[2] = cell viability/%
Outline: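 First, library peptide stocks are diluted 250-fold in RPMI1640 with 10% heat-inactivated FBS. Next, they are mixed with P388 cells to give 1 × 10^4 cells/mL and incubated 92 h at 37 °C, 5% CO2. Finally, viability (%) is scored by WST-1 absorbance at 415 nm.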

[3] = system: Streptococcus pyogenes SSI-9; experiment: Antibacterial activity assay of bead-derived peptides (three concentrations); assay type: cell-based; set-up: key: +++: inhibition by the 640-fold diluted peptide solution; ++: inhibition by the 160-fold diluted solution; +: inhibition by the 40-fold diluted solution; -: no inhibition; conditions: S. pyogenes, bead-derived peptide solution, three concentrations
Outline: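 Three stock dilutions per peptide (none, 4-fold, 16-fold in DMSO) are screened in 96-well format. The medium is blood-supplemented cation-adjusted MHB, inoculated with 2 × 10^5 CFU S. pyogenes SSI-9. Growth is read as cell precipitation at 18 h, 37 °C.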

SMILES	H+/Na+ transport activity normalized against the value of 1 (1.00) [1]	viability [2]	antibacterial activity [3]
CC(C)C[C@@H](NC(=O)[C@H](C)NC(=O)CNC(=O)[C@@H](NC=O)C(C)C)C(=O)N[C@@H](C)C(=O)N[C@@H](C(=O)N[C@H](C(=O)N[C@@H](C(=O)N[C@@H](Cc1c[nH]c2ccccc12)C(=O)N[C@H](CC(C)C)C(=O)N[C@@H](Cc1c[nH]c2ccccc12)C(=O)N[C@H](CC(C)C)C(=O)N[C@@H](Cc1c[nH]c2ccccc12)C(=O)N[C@H](CC(C)C)C(=O)N[C@@H](Cc1c[nH]c2ccccc12)C(=O)NCCO)[C@H](C)O)C(C)C)C(C)C [compound 1819] (For-VGA[dL]A[dV]V[dT]W[dL]W[dL]W[dL]W-NHCH2CH2OH)	1.22	100%	+
CC(C)C[C@@H](NC(=O)[C@H](C)NC(=O)CNC(=O)[C@@H](NC=O)C(C)C)C(=O)N[C@@H](C)C(=O)N[C@@H](C(=O)N[C@H](C(=O)N[C@@H](C(=O)N[C@@H](Cc1c[nH]c2ccccc12)C(=O)N[C@H](CC(C)C)C(=O)N[C@@H](Cc1c[nH]c2ccccc12)C(=O)N[C@@H](C(=O)N[C@@H](Cc1c[nH]c2ccccc12)C(=O)N[C@@H](C(=O)N[C@@H](Cc1c[nH]c2ccccc12)C(=O)NCCO)C(C)C)[C@H](C)O)C(C)C)C(C)C)C(C)C [compound 87] (For-VGA[dL]A[dV]V[dV]W[dL]W[dT]W[dV]W-NHCH2CH2OH)	1.12	100%	++
CC(C)C[C@@H](NC(=O)[C@H](C)NC(=O)CNC(=O)[C@@H](NC=O)C(C)C)C(=O)N[C@@H](C)C(=O)N[C@H](CC(C)C)C(=O)N[C@H](C(=O)N[C@H](CC(C)C)C(=O)N[C@@H](Cc1c[nH]c2ccccc12)C(=O)N[C@@H](C(=O)N[C@@H](Cc1c[nH]c2ccccc12)C(=O)N[C@@H](C(=O)N[C@@H](Cc1c[nH]c2ccccc12)C(=O)N[C@@H](C(=O)N[C@@H](Cc1c[nH]c2ccccc12)C(=O)NCCO)[C@H](C)O)[C@H](C)O)C(C)C)C(C)C [compound 7253] (For-VGA[dL]A[dL]V[dL]W[dV]W[dT]W[dT]W-NHCH2CH2OH)	1.03	45.4%	-
CC(C)C[C@@H](NC(=O)[C@H](Cc1c[nH]c2ccccc12)NC(=O)[C@H](NC(=O)[C@H](Cc1c[nH]c2ccccc12)NC(=O)[C@@H](CC(C)C)NC(=O)[C@@H](NC(=O)[C@H](NC(=O)[C@H](C)NC(=O)[C@H](NC(=O)[C@H](C)NC(=O)CNC(=O)[C@@H](NC=O)C(C)C)C(C)C)C(C)C)C(C)C)C(C)C)C(=O)N[C@@H](Cc1c[nH]c2ccccc12)C(=O)N[C@@H](C(=O)N[C@@H](Cc1c[nH]c2ccccc12)C(=O)NCCO)[C@H](C)O [compound 8580] (For-VGA[dV]A[dV]V[dL]W[dV]W[dL]W[dT]W-NHCH2CH2OH)	1.01	60.6%	+
CC(C)C[C@@H](NC(=O)[C@H](C)NC(=O)CNC(=O)[C@@H](NC=O)C(C)C)C(=O)N[C@@H](C)C(=O)N[C@@H](C(=O)N[C@H](C(=O)N[C@H](CC(C)C)C(=O)N[C@@H](Cc1c[nH]c2ccccc12)C(=O)N[C@@H](C(=O)N[C@@H](Cc1c[nH]c2ccccc12)C(=O)N[C@H](CC(C)C)C(=O)N[C@@H](Cc1c[nH]c2ccccc12)C(=O)N[C@@H](C(=O)N[C@@H](Cc1c[nH]c2ccccc12)C(=O)NCCO)[C@H](C)O)[C@H](C)O)C(C)C)C(C)C [compound 4868] (For-VGA[dL]A[dV]V[dL]W[dT]W[dL]W[dT]W-NHCH2CH2OH)	1.06	100%	-
CC(C)C[C@@H](NC(=O)[C@H](C)NC(=O)[C@H](NC(=O)[C@H](C)NC(=O)CNC(=O)[C@@H](NC=O)C(C)C)[C@H](C)O)C(=O)N[C@H](C(=O)N[C@@H](C(=O)N[C@@H](Cc1c[nH]c2ccccc12)C(=O)N[C@@H](C(=O)N[C@@H](Cc1c[nH]c2ccccc12)C(=O)N[C@H](CC(C)C)C(=O)N[C@@H](Cc1c[nH]c2ccccc12)C(=O)N[C@@H](C(=O)N[C@@H](Cc1c[nH]c2ccccc12)C(=O)NCCO)C(C)C)[C@H](C)O)C(C)C)C(C)C [compound 10338] (For-VGA[dT]A[dL]V[dV]W[dT]W[dL]W[dV]W-NHCH2CH2OH)	1.01	100%	-
CC(C)C[C@@H](NC(=O)[C@H](Cc1c[nH]c2ccccc12)NC(=O)[C@H](NC(=O)[C@H](Cc1c[nH]c2ccccc12)NC(=O)[C@@H](CC(C)C)NC(=O)[C@H](Cc1c[nH]c2ccccc12)NC(=O)[C@H](NC(=O)[C@@H](NC(=O)[C@H](NC(=O)[C@H](C)NC(=O)[C@H](NC(=O)[C@H](C)NC(=O)CNC(=O)[C@@H](NC=O)C(C)C)C(C)C)C(C)C)C(C)C)[C@H](C)O)C(C)C)C(=O)N[C@@H](Cc1c[nH]c2ccccc12)C(=O)NCCO [compound 2829] (For-VGA[dV]A[dV]V[dT]W[dL]W[dV]W[dL]W-NHCH2CH2OH)	1.13	100%	-
CNC(=O)C[C@@H](NC(=O)[C@H](Cc1c[nH]c2ccccc12)NC(=O)[C@@H](CC(C)C)NC(=O)[C@H](Cc1c[nH]c2ccccc12)NC(=O)[C@@H](CC(C)C)NC(=O)[C@@H](NC(=O)[C@@H](CC(C)C)NC(=O)[C@H](C)NC(=O)[C@@H](CC(C)C)NC(=O)[C@H](C)NC(=O)CNC(=O)[C@@H](NC=O)C(C)C)C(C)C)C(=O)N[C@@H](Cc1c[nH]c2ccccc12)C(=O)N[C@@H](C(=O)N[C@@H](Cc1c[nH]c2ccccc12)C(=O)NCCO)[C@H](C)O [compound 3773] (For-VGA[dL]A[dL]V[dL]W[dL]W[dD](NHMe)W[dT]W-NHCH2CH2OH)	1.03	100%	-
CC(C)C[C@@H](NC(=O)[C@H](Cc1c[nH]c2ccccc12)NC(=O)[C@@H](CC(C)C)NC(=O)[C@H](Cc1c[nH]c2ccccc12)NC(=O)[C@@H](CC(C)C)NC(=O)[C@H](Cc1c[nH]c2ccccc12)NC(=O)[C@H](NC(=O)[C@@H](NC(=O)[C@H](NC(=O)[C@H](C)NC(=O)[C@H](NC(=O)[C@H](C)NC(=O)CNC(=O)[C@@H](NC=O)C(C)C)[C@H](C)O)C(C)C)C(C)C)C(C)C)C(=O)N[C@@H](Cc1c[nH]c2ccccc12)C(=O)NCCO [compound 3786] (For-VGA[dT]A[dV]V[dV]W[dL]W[dL]W[dL]W-NHCH2CH2OH)	1.18	100%	-
CC(C)C[C@@H](NC(=O)[C@H](Cc1c[nH]c2ccccc12)NC(=O)[C@H](NC(=O)[C@H](Cc1c[nH]c2ccccc12)NC(=O)[C@H](NC(=O)[C@@H](NC(=O)[C@H](NC(=O)[C@H](C)NC(=O)[C@H](NC(=O)[C@H](C)NC(=O)CNC(=O)[C@@H](NC=O)C(C)C)C(C)C)C(C)C)C(C)C)[C@H](C)O)C(C)C)C(=O)N[C@@H](Cc1c[nH]c2ccccc12)C(=O)N[C@@H](C(=O)N[C@@H](Cc1c[nH]c2ccccc12)C(=O)NCCO)C(C)C [compound 10506] (For-VGA[dV]A[dV]V[dT]W[dV]W[dL]W[dV]W-NHCH2CH2OH)	1.18	91.3%	-
CC(C)C[C@@H](NC(=O)[C@H](Cc1c[nH]c2ccccc12)NC(=O)[C@H](NC(=O)[C@@H](NC(=O)[C@H](NC(=O)[C@H](C)NC(=O)[C@H](NC(=O)[C@H](C)NC(=O)CNC(=O)[C@@H](NC=O)C(C)C)C(C)C)C(C)C)C(C)C)C(C)C)C(=O)N[C@@H](Cc1c[nH]c2ccccc12)C(=O)N[C@@H](C(=O)N[C@@H](Cc1c[nH]c2ccccc12)C(=O)N[C@@H](C(=O)N[C@@H](Cc1c[nH]c2ccccc12)C(=O)NCCO)C(C)C)C(C)C [compound 169] (For-VGA[dV]A[dV]V[dV]W[dL]W[dV]W[dV]W-NHCH2CH2OH)	1.04	100%	++
CNC(=O)C[C@@H](NC(=O)[C@H](Cc1c[nH]c2ccccc12)NC(=O)[C@H](NC(=O)[C@H](Cc1c[nH]c2ccccc12)NC(=O)[C@H](NC(=O)[C@H](Cc1c[nH]c2ccccc12)NC(=O)[C@H](NC(=O)[C@@H](NC(=O)[C@H](NC(=O)[C@H](C)NC(=O)[C@@H](CC(C)C)NC(=O)[C@H](C)NC(=O)CNC(=O)[C@@H](NC=O)C(C)C)C(C)C)C(C)C)C(C)C)C(C)C)C(C)C)C(=O)N[C@@H](Cc1c[nH]c2ccccc12)C(=O)NCCO [compound 362] (For-VGA[dL]A[dV]V[dV]W[dV]W[dV]W[dD](NHMe)W-NHCH2CH2OH)	1.05	100%	-
CNC(=O)C[C@@H](NC(=O)[C@H](Cc1c[nH]c2ccccc12)NC(=O)[C@@H](CC(C)C)NC(=O)[C@@H](NC(=O)[C@@H](CC(C)C)NC(=O)[C@H](C)NC(=O)[C@H](NC(=O)[C@H](C)NC(=O)CNC(=O)[C@@H](NC=O)C(C)C)C(C)C)C(C)C)C(=O)N[C@@H](Cc1c[nH]c2ccccc12)C(=O)N[C@@H](C(=O)N[C@@H](Cc1c[nH]c2ccccc12)C(=O)N[C@@H](C(=O)N[C@@H](Cc1c[nH]c2ccccc12)C(=O)NCCO)C(C)C)C(C)C [compound 1152] (For-VGA[dV]A[dL]V[dL]W[dD](NHMe)W[dV]W[dV]W-NHCH2CH2OH)	1.05	100%	-
